According to patent publication US7638639B2, “Substituted pyrrolidine and related compounds” (Theravance, Inc., priority 2003, dated 2009):

Test system: methacholine-induced decrease in mean arterial pressure
Assay: Methacholine-induced depressor responses in conscious guinea pigs
Assay type: in vivo
Conditions: guinea pig, inhalation
Description: Methacholine-Induced Depressor Responses in Conscious Guinea Pigs
Healthy, adult, male Sprague-Dawley guinea pigs (Harlan, Indianapolis, Ind.), weighing between 200 and 300 g were used in these studies. Under isoflurane anesthesia (to effect), animals were instrumented with common carotid artery and jugular vein catheters (PE-50 tubing). The catheters were exteriorized utilizing a subcutaneous tunnel to the subscapular area. All surgical incisions were sutured with 4-0 Ethicon Silk and the catheters locked with heparin (1000 units/mL). Each animal was administered saline (3 mL, SC) at the end of surgery as well as buprenorphine (0.05 mg/kg, IM). Animals were allowed to recover on a heating pad before being returned to their holding rooms.
Approximately 18 to 20 hours following surgery, the animals were weighed and the carotid artery catheter on each animal was connected to a transducer for recording arterial pressure. Arterial pressure and heart rate was recorded using a Biopac MP-100 Acquisition System. Animals were allowed to acclimate and stabilize for a period of 20 minutes.
Each animal was challenged with methylcholine (MCh) (0.3 mg/kg, iv) administer through the jugular venous line and the cardiovascular response was monitored for 10 minutes. […] At 1.5 and 24 h post-dosing, the animals were re-challenged with MCh (0.3 mg/kg, iv) and the hemodynamic response was determined. […]

CNCCCCCCCCN1CC[C@@H](C(C(N)=O)(c2ccccc2)c2ccccc2)C1 [Example 1, 2-[(S)-1-(8-Methylaminooctyl)pyrrolidin-3-yl]-2,2-diphenylacetamide]
apparent lung-selectivity index (anti-depressor ID50 / bronchoprotective ID50): greater than 5
